Reference: ChEMBL document CHEMBL6177994 (J Med Chem, 2025)
pIC50: −log10 of the molar value. Calls of active or inactive are those of the source. The rule behind the calls is not given here.

How the values were obtained:
[1] = tested on: Protein cereblon/GTPase KRas (Homo sapiens), P01116+Q96SW2 [G12D]; experiment: PROTAC activity at CRBN/KRAS G12D mutant in human ASPC1 cells assessed as induction of KRAS G12D mutant degradation at 50 nM measured after 24 hrs by immunoblot analysis relative to control; assay type: cell-based
Chain of Protein cereblon/GTPase KRas (Homo sapiens), P01116+Q96SW2 [G12D] (P01116 whole entry G12D): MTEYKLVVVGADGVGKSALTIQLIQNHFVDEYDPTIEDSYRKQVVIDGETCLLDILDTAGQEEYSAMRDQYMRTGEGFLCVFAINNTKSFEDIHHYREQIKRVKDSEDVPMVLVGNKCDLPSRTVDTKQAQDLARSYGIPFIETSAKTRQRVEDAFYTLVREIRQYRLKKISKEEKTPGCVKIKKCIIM
Chain of Protein cereblon/GTPase KRas (Homo sapiens), P01116+Q96SW2 [G12D] (Q96SW2 whole entry partner): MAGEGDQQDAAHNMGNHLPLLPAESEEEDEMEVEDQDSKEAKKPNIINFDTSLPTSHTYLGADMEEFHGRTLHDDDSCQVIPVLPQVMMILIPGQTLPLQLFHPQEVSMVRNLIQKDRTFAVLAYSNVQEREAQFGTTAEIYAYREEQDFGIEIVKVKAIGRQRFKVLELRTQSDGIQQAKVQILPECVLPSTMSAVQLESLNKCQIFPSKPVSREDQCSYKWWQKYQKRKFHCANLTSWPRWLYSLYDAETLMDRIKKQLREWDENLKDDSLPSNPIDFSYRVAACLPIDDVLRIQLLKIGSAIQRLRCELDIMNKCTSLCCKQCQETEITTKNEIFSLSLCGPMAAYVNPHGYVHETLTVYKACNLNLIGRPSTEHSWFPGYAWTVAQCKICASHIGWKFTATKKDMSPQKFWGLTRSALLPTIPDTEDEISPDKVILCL

[2] = target: Protein cereblon/GTPase KRas (Homo sapiens, UniProt P01116+Q96SW2, G12D); experiment: PROTAC activity at CRBN/KRAS G12D mutant in human ASPC1 cells assessed as induction of KRAS G12D mutant degradation measured after 24 hrs by immunoblot analysis; assay type: cell-based
Chain of Protein cereblon/GTPase KRas (P01116 whole entry G12D, stated change not applied): as the sequence (P01116 whole entry G12D) above
Chain of Protein cereblon/GTPase KRas (Q96SW2 whole entry, stated change not applied): as the sequence (Q96SW2 whole entry partner) above

AGS = experiment: PROTAC activity at CRBN/KRAS G12D mutant in human AGS cells assessed as induction of KRAS G12D mutant degradation 0.01 to 100 nM measured after 24 hrs by immunoblot analysis; assay type: cell-based; details: dose 0.01-100 nM
[3] = Inhibition of ERK phosphorylation in human PK-59 cells harbouring KRAS G12D mutant measured after 24 hrs; assay type: cell-based; details: PK-59, 24 h
ASPC1 [4] = experiment: Effect on CK1alpha level in human ASPC1 cells at 10 nM measured after 8 hrs by Western blot analysis; assay type: functional, cell-based
ASPC1 [5] = experiment: Effect on GSPT1 level in human ASPC1 cells at 10 nM measured after 8 hrs by Western blot analysis; assay type: functional, cell-based
[6] = target: Protein cereblon/Eukaryotic peptide chain release factor GTP-binding subunit ERF3A (Homo sapiens) (UniProt Q96SW2+P15170); experiment: PROTAC activity at CRBN/GSPT1 in human ASPC1 cells assessed as induction of GSPT1 degradation at 10 to 1000 nM measured after 24 hrs by immunoblot analysis; assay type: cell-based; details: dose 10-1000 nM
Chain of Protein cereblon/Eukaryotic peptide chain release factor GTP-binding subunit ERF3A (Homo sapiens) (P15170 whole entry, looked up): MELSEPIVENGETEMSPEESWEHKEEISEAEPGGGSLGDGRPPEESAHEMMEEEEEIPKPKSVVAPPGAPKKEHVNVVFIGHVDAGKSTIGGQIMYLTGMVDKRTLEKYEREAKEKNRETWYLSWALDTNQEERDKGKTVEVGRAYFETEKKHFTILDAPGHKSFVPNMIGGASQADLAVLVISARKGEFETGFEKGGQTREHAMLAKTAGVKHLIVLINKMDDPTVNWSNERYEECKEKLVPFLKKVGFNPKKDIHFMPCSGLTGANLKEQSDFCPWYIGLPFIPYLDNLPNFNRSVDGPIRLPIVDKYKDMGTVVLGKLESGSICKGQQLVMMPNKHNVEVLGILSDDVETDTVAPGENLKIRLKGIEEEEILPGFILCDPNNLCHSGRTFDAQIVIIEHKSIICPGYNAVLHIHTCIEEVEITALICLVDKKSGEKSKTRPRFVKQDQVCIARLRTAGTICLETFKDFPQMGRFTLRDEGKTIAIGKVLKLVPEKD
Chain of Protein cereblon/Eukaryotic peptide chain release factor GTP-binding subunit ERF3A (Homo sapiens) (Q96SW2 whole entry, looked up): as the sequence (Q96SW2 whole entry partner) above

[7] = Antiproliferative activity against human GP2d cells harbouring KRAS G12D mutant assessed as inhibition of cell growth measured after 72 hrs by Cell titer glo method; assay type: functional, cell-based
HEK293 = experiment: Antiproliferative activity against HEK293 cells harbouring wild type KRAS assessed as inhibition of cell growth measured after 72 hrs by Cell titer glo method; assay type: toxicity, cell-based; details: human, hek293, 72 h
A-427 = experiment: Antiproliferative activity against human A-427 cells harbouring KRAS G12D mutant assessed as inhibition of cell growth measured after 72 hrs by Cell titer glo method; assay type: functional, cell-based
SK-LU-1 = experiment: Antiproliferative activity against human SK-LU-1 cells harbouring KRAS G12D mutant assessed as inhibition of cell growth measured after 72 hrs by Cell titer glo method; assay type: functional, cell-based
SW1990 = experiment: Antiproliferative activity against human SW1990 cells harbouring KRAS G12D mutant assessed as inhibition of cell growth measured after 72 hrs by Cell titer glo method; assay type: functional, cell-based
[8] = Inhibition of Raf (unknown origin)/GTP loaded KRas G12D mutant interaction preincubated for 15 mins followed by anti-tag1-eu3 and Tag2-XL665 antibody addition and measured for 120 mins by HTRF method; set-up: species or system Homo sapiens
[9] = Toxicity in female Balb/c nude mouse xenografted with human PK-59 cells assessed as change in body weight at 0.1 to 3 mg/kg, iv QW measured after 28 days; assay type: organism-based; details: in vivo, 672 h, dose 0.1-3 mg/kg, time 28 day
[10] = Antitumor activity against human GP2d cells xenografted in female Balb/c nude mouse model assessed as tumor growth inhibition at 10 mg/kg, iv QW administered weekly and measured after 28 days relative to control; assay type: functional; details: 672 h, time 28 day, read-out: TGI
ASPC1 [11] = experiment: Antitumor activity against human ASPC1 cells harbouring KRAS G12D mutant xenografted in female Balb/c nude mouse model assessed as tumor regression at 1 to 20 mg/kg, iv QW administered weekly and measured after 28 days; assay type: functional, organism-based; details: dose 1-20 mg/kg, time 28.0 day
[12] = tested on: Protein cereblon/GTPase KRas (Homo sapiens), P01116+Q96SW2 [G12D]; experiment: In vivo PROTAC activity at CRBN/KRAS G12D mutant in male Balb/c nude mouse xenografted with human PK-59 cells assessed as reduction in ERK phosphorylation level in tumor at 10 mg/kg, iv measured up to 168 hrs; assay type: functional, organism-based
[13] = tested on: Protein cereblon/GTPase KRas (Homo sapiens), P01116+Q96SW2 [G12D]; experiment: In vivo PROTAC activity at CRBN/KRAS G12D mutant in male Balb/c nude mouse xenografted with human PK-59 cells assessed as increase in cleaved caspase 7 level at 10 mg/kg, iv measured up to 168 hrs; assay type: functional, organism-based
[14] = Drug concentration in male Balb/c nude mouse tumor xenografted with human GP2d cells at 10 mg/kg, iv administered as single dose measured after 7 days by LC-MS/MS analysis; assay type: ADME, organism-based, Neoplasm; details: time 7 day, read-out: Ct
[15] = tested on: Protein cereblon/GTPase KRas (Homo sapiens), P01116+Q96SW2 [G12D]; experiment: In vivo PROTAC activity at CRBN/KRAS G12D mutant in male Balb/c nude mouse xenografted with human GP2d cells assessed as degradation of KRAS G12D mutant at 10 mg/kg, iv measured after 7 days relative to control; assay type: functional, organism-based; details: time 7.0 day
[16] = tested on: Protein cereblon/GTPase KRas (Homo sapiens), P01116+Q96SW2 [G12D]; experiment: In vivo PROTAC activity at CRBN/KRAS G12D mutant in male Balb/c nude mouse xenografted with human GP2d cells assessed as inhibition of DUSP4 level at 10 mg/kg, iv measured after 7 days; assay type: functional, organism-based; details: time 7.0 day
[17] = Stability in dog plasma assessed as half life at 1 uM measured up to 120 mins by LC-MS/MS analysis; assay type: ADME, cell-free, Canis lupus familiaris
[18] = Stability in monkey plasma assessed as half life at 1 uM measured up to 120 mins by LC-MS/MS analysis; assay type: ADME, cell-free, Macaca mulatta; details: rhesus monkey
[19] = Metabolic stability in mouse liver microsomes assessed as half life at 1 uM preincubated for 3 mins with NADPH and measured up to 60 mins by LC-MS/MS analysis; assay type: ADME, Microsome; details: time < 63 min
[20] = Metabolic stability in dog liver microsomes assessed as intrinsic clearance at 1 uM preincubated for 3 mins with NADPH and measured up to 60 mins by LC-MS/MS analysis; assay type: ADME, Canis lupus familiaris, Microsome; details: time < 63 min, read-out: CLH
Cytochrome P450 2B6 = Cytochrome P450 2B6 (Homo sapiens, UniProt P20813); experiment: Inhibition of CYP2B6 in human liver microsomes using bupropion as substrate at 10 uM incubated for 20 mins in presence of NADPH by LC/MS analysis; assay type: ADME, Microsome
Chain of Cytochrome P450 2B6 (P20813 whole entry): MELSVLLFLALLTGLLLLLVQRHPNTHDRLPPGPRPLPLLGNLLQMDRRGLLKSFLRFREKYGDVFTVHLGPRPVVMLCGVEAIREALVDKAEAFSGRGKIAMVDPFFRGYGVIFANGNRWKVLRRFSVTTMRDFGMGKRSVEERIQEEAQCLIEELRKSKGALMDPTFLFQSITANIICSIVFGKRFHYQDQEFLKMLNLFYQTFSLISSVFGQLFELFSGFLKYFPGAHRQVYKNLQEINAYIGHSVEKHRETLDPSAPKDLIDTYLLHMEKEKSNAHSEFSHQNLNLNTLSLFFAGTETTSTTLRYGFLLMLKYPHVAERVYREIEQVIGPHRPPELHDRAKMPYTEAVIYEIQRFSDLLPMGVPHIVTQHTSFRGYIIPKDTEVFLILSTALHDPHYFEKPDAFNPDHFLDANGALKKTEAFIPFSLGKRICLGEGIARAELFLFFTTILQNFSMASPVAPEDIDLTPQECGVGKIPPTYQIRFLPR

[21] = Plasma protein binding in mouse at 2 uM by LC-MS/MS analysis; assay type: ADME, cell-free; details: read-out: PPB
[22] = AUC (0 to t) in male ICR mouse at 1 mg/kg, iv measured up to 24 hrs by LC-MS/MS analysis; assay type: ADME, organism-based; details: in vivo
[23] = Clearance in male ICR mouse at 1 mg/kg, iv measured up to 24 hrs by LC-MS/MS analysis; assay type: ADME, organism-based; details: in vivo
[24] = Half life in male Sprague-Dawley rat at 1 mg/kg, iv measured up to 24 hrs by LC-MS/MS analysis; assay type: ADME, organism-based; details: in vivo
[25] = Clearance in male Beagle dog at 1 mg/kg, iv measured up to 24 hrs by LC-MS/MS analysis; assay type: ADME, organism-based, Canis lupus familiaris; details: in vivo
[26] = Half life in male cynomolgus monkey at 1 mg/kg, iv measured up to 24 hrs by LC-MS/MS analysis; assay type: ADME, organism-based, Macaca fascicularis; details: in vivo
[27] = Elimination half life in male ICR mouse pancreas at 10 mg/kg, iv measured up to 336 hrs by LC-MS/MS analysis; assay type: ADME, organism-based; details: read-out: beta t1/2 (converted)

Compound: C#Cc1c(F)ccc2cc(O)cc(-c3ncc4c(N5CC6CCC(C5)N6)nc(OCC5(CN6CCC7(CC6)CC(N6CCC(c8cc9c(cc8F)c(N8CCC(=O)NC8=O)nn9C)CC6)C7)CC5)nc4c3F)c12
- Activity [1]: 74%
- DC50 [2]: 0.6 nM
- Activity (AGS): Active
- pIC50 [3]: 8.57
- Activity (ASPC1 [4]): inactive
- Activity (ASPC1 [5]): inactive
- Activity [6]: inactive
- pIC50 [7]: 9.72
- Activity (HEK293): Non-toxic
- Activity (A-427): Active; Compound Showed Stronger Antiproliferative Activity Compared To Mrtx1133
- Activity (SK-LU-1): Active; Compound Showed Stronger Antiproliferative Activity Compared To Mrtx1133
- Activity (SW1990): Active; Compound Showed Stronger Antiproliferative Activity Compared To Mrtx1133
- pIC50 [8]: 8.49
- Activity [9]: Non-toxic
- inhibition in vivo at 10 mg/kg [10]: 30.9%
- Activity (ASPC1 [11]): Weak_effect
- Activity [12]: Active
- Activity [13]: Active
- concentration at 168 h [14]: 840 ng/g
- Activity [15]: 95%
- Activity [16]: Active
- half-life at 1 µM [17]: 7.22 h
- half-life at 1 µM [18]: 12.8 h
- half-life at 1 µM [19]: 7.22 h
- CLint scaled at 1 µM [20]: 4.6 mL/min/kg
- inhibition (INH) (Cytochrome P450 2B6): Not_active
- fraction unbound at 2 µM [21]: < 0.05
- AUC(0-t) at 24 h [22]: 0.397 µM·h
- clearance [23]: 39 mL/min/kg
- half-life [24]: 9.63 h
- clearance [25]: 33 mL/min/kg
- half-life [26]: 12.4 h
- half-life [27]: 330 h
